According to ChEMBL document CHEMBL5550215, “Discovery of Novel Imidazo[1,2-a]pyridine-Based HDAC6 Inhibitors as an Anticarcinogen with a Cardioprotective Effect” (J Med Chem, 2024):
Calls of active or inactive are those of the source. The rule behind the calls is not given here.

Tests used:
H9c2 [1] = experiment: Protection against H2O2 induced myocardial cell injury in rat H9c2 cells at 10 uM pretreated for 24 hrs followed by H2O2 exposure and measured after 1.5 hrs (reference value: 17.91 to 57.32%); format: functional; settings: time 25.5 hrs
SMMC-7721 = experiment: Antiproliferative activity against human SMMC-7721 cells assessed as inhibition of cell growth by MTT assay
NCI-H460 = experiment: Antiproliferative activity against human NCI-H460 cells assessed as inhibition of cell growth by MTT assay
PC-3 = experiment: Antiproliferative activity against human PC-3 cells assessed as inhibition of cell growth by MTT assay
Histone deacetylase 1 = Histone deacetylase 1 (Homo sapiens, UniProt Q13547); experiment: Inhibition of HDAC1 (unknown origin)
[2] = Observed apparent volume of distribution in male Sprague-Dawley rat at 7 mg/kg,iv measured upto 8 hrs by UPLC-MS/MS analysis; format: ADME, organism-based; settings: in vivo, read-out: Vz
[3] = Observed clearance in male Sprague-Dawley rat at 7 mg/kg,iv measured upto 8 hrs by UPLC-MS/MS analysis; format: ADME, organism-based; settings: in vivo
MGC-803 [4] = experiment: Antimetastatic activity in human MGC-803 cells; format: functional, cell-based; settings: dose <= 2.0 µM
MGC-803 [5] = experiment: Induction of apoptosis in human MGC-803 cells assessed as viable cells at 2 uM measured after 48 hrs by Annexin V-EGFP and PI staining based flow cytometry analysis (reference value: 92.3%); format: functional; settings: read-out: Activity
MGC-803 [6] = experiment: Induction of apoptosis in human MGC-803 cells assessed as necrotic cells at 1 uM measured after 48 hrs by Annexin V-EGFP and PI staining based flow cytometry analysis (reference value: 3.90%); format: functional
MGC-803 [7] = experiment: Induction of apoptosis in human MGC-803 cells assessed as decrease in Bcl-2 expression by Western blot analysis; format: functional, cell-based; settings: dose <= 2.0 µM
[8] = Toxicity in C57BL/6 mouse assessed as lesions in myocardial tissue at 25 to 50 mg/kg, ip by H and E staining based analysis; format: organism-based; settings: in vivo, dose 25-50 mg/kg
H9c2 [9] = experiment: Cardioprotective activity in H2O2 induced myocardial injury in rat H9c2 cells assessed as cell viability by MTT assay; format: functional, cell-based; settings: dose <= 8.0 µM
H9c2 [10] = experiment: Cardioprotective activity in H2O2 induced myocardial injury in rat H9c2 cells assessed as LDH release by absorbance based analysis; format: functional, cell-based; settings: dose <= 8.0 µM
H9c2 [11] = experiment: Cardioprotective activity in H2O2 induced myocardial injury in rat H9c2 cells assessed as decrease in cell contraction at 2 to 8 uM; format: functional, cell-based; settings: dose 2-8 µM
H9c2 [12] = experiment: Cardioprotective activity in H2O2 induced myocardial injury in rat H9c2 cells assessed as decrease in cell death at 2 to 8 uM; format: functional, cell-based; settings: dose 2-8 µM
H9c2 [13] = experiment: Cardioprotective activity in H2O2 induced myocardial injury in rat H9c2 cells assessed as effect on beclin1 level at upto 8 uM by q-PCR analysis; format: functional, cell-based
Mus musculus = experiment: Cardioprotective activity against myocardial ischemia/reperfusion induced C57BL/6J mouse model assessed as alleviation of extensive myocardial necrosis at 10 mg/kg by H and E staining based analysis; format: functional, organism-based
H9c2 [14] = experiment: Cardioprotective activity against H2O2 induced myocardial damage in rat H9c2 cells harbouring Ad.HDAC6 assessed as decrease in LDH leakage rate at 8 uM by absorbance based analysis; format: functional, cell-based
H9c2 [15] = experiment: Cardioprotective activity against H2O2 induced myocardial damage in rat H9c2 cells harbouring Ad.HDAC6 assessed as reversal of IL-1 beta expression at 8 uM; format: functional, cell-based

Chain of Histone deacetylase 1 (Q13547 whole entry): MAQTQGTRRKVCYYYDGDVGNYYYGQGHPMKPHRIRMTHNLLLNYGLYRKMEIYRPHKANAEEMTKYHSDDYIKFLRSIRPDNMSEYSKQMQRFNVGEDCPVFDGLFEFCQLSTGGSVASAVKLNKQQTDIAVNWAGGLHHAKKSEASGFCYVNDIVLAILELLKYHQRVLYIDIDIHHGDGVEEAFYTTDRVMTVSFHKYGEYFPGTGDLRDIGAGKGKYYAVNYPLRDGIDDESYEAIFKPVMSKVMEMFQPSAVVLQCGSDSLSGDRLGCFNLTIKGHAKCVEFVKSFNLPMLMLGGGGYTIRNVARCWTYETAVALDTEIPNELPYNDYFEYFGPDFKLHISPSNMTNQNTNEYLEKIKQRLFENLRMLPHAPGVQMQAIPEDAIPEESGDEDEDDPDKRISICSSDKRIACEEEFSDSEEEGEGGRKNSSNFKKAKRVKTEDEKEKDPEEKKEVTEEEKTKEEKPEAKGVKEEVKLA

O=C(NO)c1ccc(CNC(=O)c2cc(-c3ccc(F)cc3)cn3ccnc23)cc1
Activity (H9c2 [1]): 66.13% | IC50 (SMMC-7721): 2740 nM | IC50 (NCI-H460): > 10000 nM | IC50 (PC-3): > 10000 nM | IC50 (Histone deacetylase 1): 3.1 nM | Vd [2]: 25.5 L/kg | clearance [3]: 134 mL/min/kg | Activity (MGC-803 [4]): Dose-Dependent Effect | viability at 2 µM (MGC-803 [5]): 70.1% | Activity (MGC-803 [6]): 4.7% | Activity (MGC-803 [7]): Dose-Dependent Effect | Activity [8]: Non-Toxic | Activity (H9c2 [9]): Active | Activity (H9c2 [10]): Active | Activity (H9c2 [11]): Active | Activity (H9c2 [12]): Active | Activity (H9c2 [13]): inactive | Activity (Mus musculus): Active | Activity (H9c2 [14]): Active | Activity (H9c2 [15]): Active
